Numbered stars: 1 amine (or outer) side, 2 acyl side, 3 side chain; on linkers, the order of the positions; unused ones are H or OH. Square brackets hold non-standard residues; d marks the D form. Side chains are listed from the residue outwards. Peptide text beside a SMILES is read from it. * marks the point of attachment. C18 diacid = O=C(O)CCCCCCCCCCCCCCCCC(=O)*; γGlu = O=C(O)[C@H](CCC(=O)[*:2])N[*:1]; AEEA = NCCOCCOCC(=O)O; Aib = CC(C)(N)C(=O)O
experiment: Thioflavin T (ThT) fibrillation assay for physical stability; format: physicochemical; settings: 250 μM in 10 mM HEPES buffer, pH 7.5, 37° C., shaking 960 rpm
From the text: The purpose of this assay was to assess the physical stability of the glucagon derivatives of the invention in aqueous solutions.
Low physical stability of a peptide may lead to amyloid fibril formation, which is observed as well-ordered, thread-like macromolecular structures in the sample, which eventually may lead to gel formation. This has traditionally been measured by visual inspection of the sample. However, that kind of measurement is very subjective and depending on the observer. Therefore, the application of a small molecule indicator probe is much more advantageous. Thioflavin T (ThT) is such a probe and has a distinct fluorescence signature when binding to fibrils [Naiki et al; Anal. Biochem. 1989 177 244-249; LeVine; Methods. Enzymol. 1999 309 274-284].
The time course for fibril formation can be described by a sigmoidal curve with the following expression [Nielsen et al; Biochemistry 2001 40 6036-6046]:
Here, as depicted in FIG. 1, F is the ThT fluorescence at the time t. The constant t0 is the time needed to reach 50% of maximum fluorescence. The two important parameters describing fibril formation are the lag-time calculated by t0−2τ and the apparent rate constant kapp 1/τ.
Samples were prepared freshly before each assay. Each sample composition is described in the legends. The pH of the sample was adjusted to the desired value using appropriate amounts of concentrated NaOH and HCl. Thioflavin T was added to the samples from a stock solution in H2O to a final concentration of 1 μM.
Sample aliquots of 200 μl (250 μM of the glucagon derivative/analogue in 10 mM HEPES buffer, pH 7.5) were placed in a 96 well microtiter plate (Packard OptiPlate™-96, white polystyrene). Usually, four or eight replica of each sample (corresponding to one test condition) were placed in one column of wells. The plate was sealed with Scotch Pad (Qiagen).
Incubation at given temperature, shaking and measurement of the ThT fluorescence emission were done in a Fluoroskan Ascent FL fluorescence plate reader (Thermo Labsystems). The temperature was set to 37° C. and the plate was incubated with orbital shaking adjusted to 960 rpm with an amplitude of 1 mm. Fluorescence measurement was done using excitation through a 444 nm filter and measurement of emission through a 485 nm filter.
Each run was initiated by incubating the plate at the assay temperature for 10 min. The plate was measured every 20 minutes for a desired period of time. Between each measurement, the plate was shaken and heated as described.
After completion of the ThT assay the four or eight replica of each sample was pooled and centrifuged at 20000 rpm for 30 minutes at 18° C. The supernatant was filtered through a 0.22 μm filter and an aliquot was transferred to a HPLC vial.
The concentration of peptide in the initial sample and in the filtered supernatant was determined by reverse phase HPLC using an appropriate standard as reference. The percentage fraction the concentration of the filtered sample constituted of the initial sample concentration was reported as the recovery.
The measurement points were saved in Microsoft Excel format for further processing and curve drawing and fitting was performed using GraphPad Prism. The background emission from ThT in the absence of fibrils was negligible. The data points were typically a mean of four or eight samples.
The data set may be fitted to Eq. (1).

THT assay Lag time (Ex. 76)	SMILES
45 h	CC(C)C[C@H](NC(=O)[C@H](Cc1c[nH]c2ccccc12)NC(=O)[C@H](C)NC(=O)[C@@H](NC(=O)[C@H](Cc1ccccc1)NC(=O)[C@H](CCC(=O)O)NC(=O)[C@H](CCCNC(=N)N)NC(=O)[C@H](C)NC(=O)[C@H](C)NC(=O)[C@H](CCCNC(=N)N)NC(=O)[C@H](CCCCNC(=O)CC[C@H](NC(=O)CC[C@H](NC(=O)COCCOCCNC(=O)COCCOCCNC(=O)CC[C@H](NC(=O)CCCCCCCCCCCCCCCCC(=O)O)C(=O)O)C(=O)O)C(=O)O)NC(=O)[C@H](CC(=O)O)NC(=O)[C@H](CC(C)C)NC(=O)[C@H](Cc1ccc(O)cc1)NC(=O)[C@H](CCCCN)NC(=O)[C@H](CO)NC(=O)[C@H](CC(C)C)NC(=O)[C@H](CC(=O)O)NC(=O)[C@H](CO)NC(=O)[C@@H](NC(=O)[C@H](Cc1ccccc1)NC(=O)[C@@H](NC(=O)CNC(=O)[C@H](CCC(N)=O)NC(=O)C(C)(C)NC(=O)[C@@H](N)Cc1c[nH]cn1)[C@@H](C)O)[C@@H](C)O)C(C)C)C(=O)N[C@@H](CC(C)C)C(=O)N[C@@H](CC(N)=O)C(=O)N[C@H](C(N)=O)[C@@H](C)O [Example 18, N^ε29-[(4S)-4-carboxy-4-[[(4S)-4-carboxy-4-[[2-[2-[2-[[2-[2-[2-[[(4S)-4-carboxy-4-(17-carboxyheptadecanoylamino)butanoyl]amino]ethoxy]ethoxy]acetyl]amino]ethoxy]ethoxy]acetyl]amino]butanoyl]amino]butanoyl]-[Aib2,Leu10,Lys16,Ala18,Arg20,Glu21,Ala-24,Leu27]-Glucagon amide] (H-H[Aib]QGTFTSDLSKYLDK([γGlu-γGlu-AEEA-AEEA-γGlu-C18 diacid])RAAREFVAWLLNT-NH2; N-terminus assumed)
45 h	CC(C)C[C@H](NC(=O)[C@H](Cc1c[nH]c2ccccc12)NC(=O)[C@H](C)NC(=O)[C@@H](NC(=O)[C@H](Cc1ccccc1)NC(=O)[C@H](CCC(=O)O)NC(=O)[C@H](CCCNC(=N)N)NC(=O)[C@H](C)NC(=O)[C@H](CCCNC(=N)N)NC(=O)[C@H](CCCNC(=N)N)NC(=O)[C@H](CCCCNC(=O)CC[C@H](NC(=O)COCCOCCNC(=O)COCCOCCNC(=O)CC[C@H](NC(=O)CC[C@H](NC(=O)CCCCCCCCCCCCCCCCC(=O)O)C(=O)O)C(=O)O)C(=O)O)NC(=O)[C@H](CCC(=O)O)NC(=O)[C@H](CC(C)C)NC(=O)[C@H](Cc1ccc(O)cc1)NC(=O)[C@H](CCCCN)NC(=O)[C@H](CO)NC(=O)[C@H](CC(C)C)NC(=O)[C@H](CC(=O)O)NC(=O)[C@H](CO)NC(=O)[C@@H](NC(=O)[C@H](Cc1ccccc1)NC(=O)[C@@H](NC(=O)CNC(=O)[C@H](Cc1c[nH]cn1)NC(=O)C(C)(C)NC(=O)[C@@H](N)Cc1c[nH]cn1)[C@@H](C)O)[C@@H](C)O)C(C)C)C(=O)N[C@@H](CC(C)C)C(=O)N[C@@H](CO)C(=O)N[C@H](C(N)=O)[C@@H](C)O [Example 32, N^ε16-[(4S)-4-carboxy-4-[[2-[2-[2-[[2-[2-[2-[[(4S)-4-carboxy-4-[[(4S)-4-carboxy-4-(17-carboxyheptadecanoylamino)butanoyl]amino]butanoyl]amino]ethoxy]ethoxy]acetyl]amino]ethoxy]ethoxy]acetyl]amino]butanoyl]-[Aib2,His3,Leu10,Glu15,Lys16,Arg20,Glu21,Ala24, Leu27,Ser28]-Glucagon amide] (H-H[Aib]HGTFTSDLSKYLEK([γGlu-AEEA-AEEA-γGlu-γGlu-C18 diacid])RRAREFVAWLLST-NH2; N-terminus assumed)
45 h	CC(C)C[C@H](NC(=O)[C@H](Cc1ccc(O)cc1)NC(=O)[C@H](CCCCN)NC(=O)[C@H](CO)NC(=O)[C@H](CC(C)C)NC(=O)[C@H](CC(=O)O)NC(=O)[C@H](CO)NC(=O)[C@@H](NC(=O)[C@H](Cc1ccccc1)NC(=O)[C@@H](NC(=O)CNC(=O)[C@H](CCC(N)=O)NC(=O)C(C)(C)NC(=O)[C@@H](N)Cc1c[nH]cn1)[C@@H](C)O)[C@@H](C)O)C(=O)N[C@@H](CC(=O)O)C(=O)N[C@@H](CCCCNC(=O)CC[C@H](NC(=O)CC[C@H](NC(=O)COCCOCCNC(=O)COCCOCCNC(=O)CC[C@H](NC(=O)CCCCCCCCCCCCCCCCC(=O)O)C(=O)O)C(=O)O)C(=O)O)C(=O)N[C@@H](CCCCN)C(=O)N[C@@H](CCCNC(=N)N)C(=O)N[C@@H](C)C(=O)N[C@@H](CCC(N)=O)C(=O)N[C@@H](CCC(=O)O)C(=O)N[C@@H](Cc1ccccc1)C(=O)N[C@H](C(=O)N[C@@H](CCC(N)=O)C(=O)N[C@@H](Cc1c[nH]c2ccccc12)C(=O)N[C@@H](CC(C)C)C(=O)N[C@@H](CC(C)C)C(=O)N[C@@H](CC(N)=O)C(=O)N[C@H](C(N)=O)[C@@H](C)O)C(C)C [Example 7, N^ε16-[(4S)-4-carboxy-4-[[(4S)-4-carboxy-4-[[2-[2-[2-[[2-[2-[2-[[(4S)-4-carboxy-4-(17-carboxyheptadecanoylamino)butanoyl]amino]ethoxy]ethoxy]acetyl]amino]ethoxy]ethoxy]acetyl]amino]butanoyl]amino]butanoyl]-[Aib2,Leu10,Lys16,Lys17,Glu21,Leu27]-Glucagon amide] (H-H[Aib]QGTFTSDLSKYLDK([γGlu-γGlu-AEEA-AEEA-γGlu-C18 diacid])KRAQEFVQWLLNT-NH2; N-terminus assumed)
